Earlier results, collected in publication PMC8097335, “A High‐Affinity Calmodulin‐Binding Site in the CyaA Toxin Translocation Domain is Essential for Invasion of Eukaryotic Cells” (Advanced Science, 2021).

Biological target: CaM
Settings: quoted without reference; read-out: Kd of AC:CaM; cited from earlier work

In the case of “AC: N-terminal adenyl cyclase catalytic domain of CyaA, first 364 residues”, the Kd is given as about 0.1 nM.
